Drawing on patent US10131675B2 (Genentech, Inc., priority 2015, dated 2018), this text covers Ki for 37 compounds.

The term Ki denotes a dissociation constant, usually derived from enzyme kinetics or from competition with a known ligand.

The target in this experiment is DLK (Homo sapiens (Human), UniProt Q12852). Briefly: DLK TR-FRET Inhibition Assay. Conditions: N-terminally GST-tagged DLK (catalytic domain amino acid 1-520), MKK4 K131M substrate, 30 μM ATP; read-out: DLK HTRF Ki. It is filed as biochemical. The procedure: DLK kinase reactions (20 μL) containing 5 nM N-terminally GST-tagged DLK (catalytic domain amino acid 1-520) (Carna Bioscience), 40 nM N-terminally HIS tagged MKK4 K131M substrate, and 30 μM ATP in kinase reaction buffer (50 mM HEPES, pH 7.5, 0.01% Triton X-100, 0.01% Bovine γ-Globulins, 2 mM DTT, 10 mM MgCl2 and 1 mM EGTA), and testing compound 1:3 serial diluted starting at 20 uM were incubated at ambient temperature for 60 minutes in 384 well OptiPlate (Perkin Elmer). To quench kinase reactions and detect phosphorylated MKK4, 15 μL of TR-FRET antibody mixture containing 2 nM anti-phosphorylated MKK4 labeled with Europium cryptate (Cisbio) and 23 nM anti-HIS labeled with D2 (Cisbio) in detection buffer (25 mM Tris pH 7.5, 100 mM NaCl, 100 mM EDTA, 0.01% Tween-20, and 200 mM KF) was added to the reaction mixture. The detection mixture was incubated for 3 hours at ambient temperature and the TR-FRET was detected with an EnVision multilabel plate reader (Perkin-Elmer) using the LANCE/DELFIA Dual Enh label from Perkin-Elmer (excitation filter: UV2 (TRF) 320 and emission filters: APC 665 and Europium 615).
DLK, sequence (Q12852 1-520): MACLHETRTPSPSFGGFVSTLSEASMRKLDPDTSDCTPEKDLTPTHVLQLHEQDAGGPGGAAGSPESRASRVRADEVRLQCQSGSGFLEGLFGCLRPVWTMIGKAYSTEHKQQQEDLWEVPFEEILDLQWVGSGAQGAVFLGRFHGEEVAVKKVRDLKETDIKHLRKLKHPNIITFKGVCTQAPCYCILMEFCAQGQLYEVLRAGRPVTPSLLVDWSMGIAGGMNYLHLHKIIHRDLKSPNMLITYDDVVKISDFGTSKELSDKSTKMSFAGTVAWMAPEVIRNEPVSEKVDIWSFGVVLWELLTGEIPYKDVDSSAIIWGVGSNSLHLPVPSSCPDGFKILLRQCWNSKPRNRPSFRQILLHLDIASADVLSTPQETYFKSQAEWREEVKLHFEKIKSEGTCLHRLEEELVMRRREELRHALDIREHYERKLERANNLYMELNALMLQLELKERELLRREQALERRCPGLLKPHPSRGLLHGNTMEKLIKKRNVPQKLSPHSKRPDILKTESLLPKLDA
On to `CC1(C)OCCn2c1nc1c(N3C[C@H]4CCC(F)(F)[C@H]4C3)nc(-c3cnc(N)nc3)nc12` (racemic) [Example 15, (±)-5-(4-((cis)-4,4-difluorohexahydrocyclopenta[c]-pyrrol-2(1H)-yl)-6,6-dimethyl-8,9-dihydro-6H-[1,4]oxazino[4,3-e]purin-2-yl)pyrimidin-2-amine], for which the Ki was 360 nM.

On to `CC[C@@]1(C)OCCn2c1nc1c(N3CC4CC3C4)nc(-c3cnc(N)nc3)nc12` (single isomer, unassigned) [Example 93], for which the Ki is 131 nM.

`CC[C@]1(C)OCCn2c1nc1c(N3CC4CC3C4)nc(-c3cnc(N)nc3)nc12` (single isomer, unassigned) [Example 94]: the Ki turned out to be 281 nM.

Turning to `C[C@@H]1COC(C)(C)c2nc3c(N4CC5CC4C5)nc(-c4cnc(N)nc4)nc3n21` (single isomer, unassigned) [Example 96], the Ki came out at 42 nM.

Consider `C[C@H]1COC(C)(C)c2nc3c(N4CC5CC4C5)nc(-c4cnc(N)nc4)nc3n21` (single isomer, unassigned) [Example 97], for which the Ki is 62 nM.

Regarding `Nc1ncc(-c2nc(N3CC4CC3C4)c3nc4n(c3n2)CCO[C@H]4C(F)(F)F)cn1` (single isomer, unassigned) [Example 98], the Ki is 93.8 nM.

In the case of `Nc1ncc(-c2nc(N3CC4CC3C4)c3nc4n(c3n2)CCO[C@@H]4C(F)(F)F)cn1` (single isomer, unassigned) [Example 99], the inhibition constant Ki worked out at 866 nM.

`C[C@@H]1COC(C)(C)c2nc3c(C4CC4)nc(-c4cnc(N)nc4)nc3n21` (single isomer, unassigned) [Example 101]: the Ki is 102 nM.

For `C[C@H]1COC(C)(C)c2nc3c(C4CC4)nc(-c4cnc(N)nc4)nc3n21` (single isomer, unassigned) [Example 102], the inhibitory constant (Ki) stood at 157 nM.

Regarding `C[C@]1(C2CC2)OCCn2c1nc1c(C3CC3)nc(-c3cnc(N)nc3)nc12` (single isomer, unassigned) [Example 105], the Ki is 211 nM.

In the case of `C[C@@]1(C2CC2)OCCn2c1nc1c(C3CC3)nc(-c3cnc(N)nc3)nc12` (single isomer, unassigned) [Example 106], the inhibition constant Ki worked out at 385 nM.

For the compound `C[C@@H]1OCCn2c1nc1c(N3CC4CC3C4)nc(-c3cnc(N)nc3)nc12` (single isomer, unassigned) [Example 107], the Ki was found to be 59.7 nM.

Turning to `C[C@H]1OCCn2c1nc1c(N3CC4CC3C4)nc(-c3cnc(N)nc3)nc12` (single isomer, unassigned) [Example 108], the Ki came out at 239 nM.

Regarding `C[C@@H]1Cn2c(nc3c(N4CC5CC4C5)nc(-c4cnc(N)nc4)nc32)C(C)(C)O1` (single isomer, unassigned) [Example 138], the Ki amounted to 82.5 nM.

As for `C[C@H]1Cn2c(nc3c(N4CC5CC4C5)nc(-c4cnc(N)nc4)nc32)C(C)(C)O1` (single isomer, unassigned) [Example 139], the inhibition constant (Ki) stood at 149 nM.

`CO[C@@H]1CC2CC1CN2c1nc(-c2cnc(N)nc2)nc2c1nc1n2CCOC1(C)C` (single isomer, unassigned) [Example 140]: the Ki was found to be 72.7 nM.

As to `CO[C@H]1CC2CC1CN2c1nc(-c2cnc(N)nc2)nc2c1nc1n2CCOC1(C)C` (single isomer, unassigned) [Example 141], the Ki stood at 392 nM.

For `CC1(C)OCCn2c1nc1c(N3CC4CC3C[C@H]4F)nc(-c3cnc(N)nc3)nc12` (single isomer, unassigned) [Example 142], the Ki turned out to be 216 nM.

On to `CC1(C)OCCn2c1nc1c(N3CC4CC3C[C@@H]4F)nc(-c3cnc(N)nc3)nc12` (single isomer, unassigned) [Example 143], for which the Ki was found to be 223 nM.

Turning to `COCC1CCCN1c1nc(-c2cnc(N)nc2)nc2c1nc1n2CCOC1(C)C` (stereo not shown) [Example 1, 5-(4-(2-(methoxymethyl)pyrrolidin-1-yl)-6,6-dimethyl-8,9-dihydro-6H-[1,4]oxazino[4,3-e]purin-2-yl)pyrimidin-2-amine], the Ki turned out to be 392 nM.

On to `CC1(C)OCCn2c1nc1c(N3CC(F)C3)nc(-c3cnc(N)nc3)nc12` [Example 2, 5-[1-(3-Fluoro-azetidin-1-yl)-8,8-dimethyl-5,6-dihydro-8H-7-oxa-2,4,4b,9-tetraaza-fluoren-3-yl]-pyrimidin-2-ylamine], for which the Ki came out at 391 nM.

Turning to `Cc1c[nH]c2ncc(-c3nc(N4CC5CC4C5)c4nc5n(c4n3)CCOC5(C)C)cc12` [Example 3, 1-(2-Aza-bicyclo[2.2.1]hex-2-yl)-8,8-dimethyl-3-(3-methyl-1H-pyrrolo[2,3-b]pyridin-5-yl)-5,6-dihydro-8H-7-oxa-2,4,4b,9-tetraaza-fluorene], the inhibition constant Ki amounted to 4.92 nM.

`Cc1c[nH]c2ncc(-c3nc(N4CC(F)C4)c4nc5n(c4n3)CCOC5(C)C)cc12` [Example 4, 1-(3-Fluoro-azetidin-1-yl)-8,8-dimethyl-3-(3-methyl-1H-pyrrolo[2,3-b]pyridin-5-yl)-5,6-dihydro-8H-7-oxa-2,4,4b,9-tetraaza-fluorene]: the inhibitory constant (Ki) was 9.74 nM.

For `CC1(C)OCCn2c1nc1c(N3CC4CC4C3)nc(-c3cnc(N)nc3)nc12` (stereo not shown) [Example 5, 5-[1-(3-Aza-bicyclo[3.1.0]hex-3-yl)-8,8-dimethyl-5,6-dihydro-8H-7-oxa-2,4,4b,9-tetraaza-fluoren-3-yl]-pyrimidin-2-ylamine], the Ki worked out at 328 nM.

Consider `CC1(C)OCCn2c1nc1c(N3C[C@@H]4CC(F)(F)C[C@@H]4C3)nc(-c3cnc(N)nc3)nc12` [Example 6], for which the Ki was 727 nM.

`CC1(C)OCCn2c1nc1c(N3CCC4CC43)nc(-c3cnc(N)nc3)nc12` (stereo not shown) [Example 7, 5-[1-(2-Aza-bicyclo[3.1.0]hex-2-yl)-8,8-dimethyl-5,6-dihydro-8H-7-oxa-2,4,4b,9-tetraaza-fluoren-3-yl]-pyrimidin-2-ylamine]: the Ki amounted to 199 nM.

Regarding `CC1(C)OCCn2c1nc1c(N3CCC4(COC4)C3)nc(-c3cnc(N)nc3)nc12` [Example 8, 5-[8,8-Dimethyl-1-(2-oxa-6-aza-spiro[3.4]oct-6-yl)-5,6-hydro-8H-7-oxa-2,4,4b,9-tetraaza-fluoren-3-yl]-pyrimidin-2-ylamine], the Ki amounted to 469 nM.

Take `CC1(C)OCCn2c1nc1c(N3CC4CC(F)(F)C4C3)nc(-c3cnc(N)nc3)nc12` (stereo not shown) [Example 10, 5-[1-(6,6-Difluoro-3-aza-bicyclo[3.2.0]hept-3-yl)-8,8-dimethyl-5,6-dihydro-8H-7-oxa-2,4,4b,9-tetraaza-fluoren-3-yl]-pyrimidin-2-ylamine]: the Ki was 157 nM.

Regarding `CC1(C)OCCn2c1nc1c(N3CC4CC3CC4(F)F)nc(-c3cnc(N)nc3)nc12` (stereo not shown) [Example 11], the inhibition constant (Ki) stood at 262 nM.

For the compound `CC1(C)OCCn2c1nc1c(N3CCC4(CCOC4)C3)nc(-c3cnc(N)nc3)nc12` (stereo not shown) [Example 12, 5-[8,8-Dimethyl-1-(2-oxa-7-aza-spiro[4.4]non-7-yl)-5,6-dihydro-8H-7-oxa-2,4,4b,9-tetraaza-fluoren-3-yl]-pyrimidin-2-ylamine], the Ki stood at 584 nM.

As for `CC1(C)OCCn2c1nc1c(N3CC4CCOC4C3)nc(-c3cnc(N)nc3)nc12` (stereo not shown) [Example 14, 5-[1-(Hexahydro-furo[2,3-c]pyrrol-5-yl)-8,8-dimethyl-5,6-dihydro-8H-7-oxa-2,4,4b,9-tetraaza-fluoren-3-yl]-pyrimidin-2-ylamine], the inhibition constant Ki was 990 nM.

`CC1(C)OCCn2c1nc1c(N3CCCC34CCOC4)nc(-c3cnc(N)nc3)nc12` (stereo not shown) [Example 16, 5-[8,8-Dimethyl-1-(7-oxa-1-aza-spiro[4.4]non-1-yl)-5,6-dihydro-8H-7-oxa-2,4,4b,9-tetraaza-fluoren-3-yl]-pyrimidin-2-ylamine]: the Ki stood at 320 nM.

As for `CC1(C)OCCn2c1nc1c(N3CCCC3)nc(-c3cnc(N)nc3)nc12` [Example 18, 5-(8,8-Dimethyl-1-pyrrolidin-1-yl-5,6-dihydro-8H-7-oxa-2,4,4b,9-tetraaza-fluoren-3-yl)-pyrimidin-2-ylamine], the inhibition constant Ki is 402 nM.

As for `Cc1n[nH]c2ncc(-c3nc(N4CC5CC4C5)c4nc5n(c4n3)CCOC5(C)C)cc12` [Example 19, 1-(2-Aza-bicyclo[2.1.1]hex-2-yl)-8,8-dimethyl-3-(3-methyl-1H-pyrazolo[3,4-b]pyridin-5-yl)-5,6-dihydro-8H-7-oxa-2,4,4b,9-tetraaza-fluorene], the Ki worked out at 493 nM.

Turning to `CCc1n[nH]c2ncc(-c3nc(N4CC5CC4C5)c4nc5n(c4n3)CCOC5(C)C)cc12` [Example 20, 1-(2-Aza-bicyclo[2.1.1]hex-2-yl)-3-(3-ethyl-1H-pyrazolo[3,4-b]pyridin-5-yl)-8,8-dimethyl-5,6-dihydro-8H-7-oxa-2,4,4b,9-tetraaza-fluorene], the inhibitory constant (Ki) was determined as 161 nM.

Take `CCOc1cc(-c2nc(N3CC4CC3C4)c3nc4n(c3n2)CCOC4(C)C)cnc1N` [Example 21, 5-[1-(2-Aza-bicyclo[2.1.1]hex-2-yl)-8,8-dimethyl-5,6-dihydro-8H-7-oxa-2,4,4b,9-tetraaza-fluoren-3-yl]-3-ethoxy-pyridin-2-ylamine]: the inhibitory constant (Ki) amounted to 279 nM.

Turning to `CC(C)Oc1cc(-c2nc(N3CC4CC3C4)c3nc4n(c3n2)CCOC4(C)C)cnc1N` [Example 22, 5-[1-(2-Aza-bicyclo[2.1.1]hex-2-yl)-8,8-dimethyl-5,6-dihydro-8H-7-oxa-2,4,4b,9-tetraaza-fluoren-3-yl]-3-isopropoxy-pyridin-2-ylamine], the Ki was determined as 406 nM.
